The subject of this assay is P388 leukemia ip, CD2F1 mice, survival T/C. The assay is described as follows: NCI In Vivo Anticancer Drug Screen. Data for tumor model P388 Leukemia (intraperitoneal) in CD2F1 (CDF1) mice. The settings on record: endpoint: median survival time, higher = longer survival. The method, then:
The antitumor activity of compounds was measured in mice bearing transplantable tumors. Survival or tumor size were measured and the results are expressed as the measurement made in the treated group (T) divided by the measurement made in the vehicle treated control group (C). The tumor model used in this assay is P388 Leukemia (intraperitoneal) in CD2F1 (CDF1) mice

Setting [1] is: dose: 30.0 mg/kg/injection, schedule: Q01DX005 (ip), vehicle: Klucel (hydroxypropylcellulose) (HPC).
[2] abbreviates: dose: 60.0 mg/kg/injection, schedule: Q01DX005 (ip), vehicle: Klucel (hydroxypropylcellulose) (HPC).
Where [3] appears, read: dose: 240.0 mg/kg/injection, schedule: Q01DX005 (ip), vehicle: Klucel (hydroxypropylcellulose) (HPC).
Where [4] appears, read: dose: 60.0 mg/kg/injection, schedule: Q01DX005 (ip), vehicle: saline with Tween-80.
The mark [5] stands for this setting: dose: 120.0 mg/kg/injection, schedule: Q01DX005 (ip), vehicle: saline with Tween-80.
The mark [6] stands for this setting: dose: 240.0 mg/kg/injection, schedule: Q01DX005 (ip), vehicle: saline with Tween-80.
The mark [7] stands for this setting: dose: 100.0 mg/kg/injection, schedule: Q01DX001 (ip), vehicle: Klucel (hydroxypropylcellulose) (HPC).
[8] abbreviates: dose: 200.0 mg/kg/injection, schedule: Q01DX001 (ip), vehicle: Klucel (hydroxypropylcellulose) (HPC).
Setting [9] is: dose: 50.0 mg/kg/injection, schedule: Q01DX009 (ip), vehicle: saline with Tween-80.
Where [10] appears, read: dose: 100.0 mg/kg/injection, schedule: Q01DX009 (ip), vehicle: saline with Tween-80.
[11] abbreviates: dose: 200.0 mg/kg/injection, schedule: Q01DX009 (ip), vehicle: saline with Tween-80.

Where “and” joins values, the source holds several entries; their conditions need not be identical. Identical values can stand only once. Toxic doses and inconclusive results are not listed.

On to `CC1(C)N=C(N)N=C(N)N1c1ccc(OCc2ccc(C(=O)Nc3cccc(S(=O)(=O)F)c3)cc2)c(Cl)c1`, for which the T/C was 181 % of control (dose: 50.0 mg/kg/injection, schedule: Q04DX003 (ip), vehicle: saline) and 86 % of control (dose: 100.0 mg/kg/injection, schedule: Q04DX003 (ip), vehicle: saline).
With `COC(=O)N1c2ccccc2C(c2ccccc2)=NC1C#N` (stereo unspecified), the T/C is, setting by setting: (dose: 7.5 mg/kg/injection, schedule: Q01DX005 (ip), vehicle: saline with Tween-80) 103 % of control; (dose: 15.0 mg/kg/injection, schedule: Q01DX005 (ip), vehicle: saline with Tween-80) 112 % of control; (dose: 30.0 mg/kg/injection, schedule: Q01DX005 (ip), vehicle: saline with Tween-80) 103 % of control.
As for `O=C1O/C(=C(/C(=O)O)c2ccc(O)cc2)C(O)=C1c1cc2c3c(c(O)cc(C4=C(O)/C(=C(\C(=O)O)c5ccc(O)cc5)OC4=O)c3c1)OC2=O`, the T/C runs as follows: (dose: 10.25 mg/kg/injection, schedule: Q01DX005 (ip), vehicle: DMSO) 94 % of control; (dose: 12.0 mg/kg/injection, schedule: Q01DX005 (ip), vehicle: DMSO) 98 % of control; (dose: 20.5 mg/kg/injection, schedule: Q01DX005 (ip), vehicle: DMSO) 110 % of control; (dose: 24.0 mg/kg/injection, schedule: Q01DX005 (ip), vehicle: DMSO) 106 % of control; (dose: 41.0 mg/kg/injection, schedule: Q01DX005 (ip), vehicle: DMSO) 106 % of control.
With `O=C(c1ccccc1)C(NCc1ccccc1)(Nc1ccccn1)c1ccccc1` (stereo unspecified), the T/C (dose: 15.0 mg/kg/injection, schedule: Q01DX005 (ip), vehicle: Klucel (hydroxypropylcellulose) (HPC)) was 102 % of control; the T/C under setting [1] is 100 % of control; the T/C under setting [2] was 100 % of control and 88 % of control; the T/C under setting [3] was 89 % of control.
For the molecule `O=C(O)c1ccccc1C(=O)O.[Cu+2].[NH-]CC[NH-]`, the T/C reads like this: (dose: 1.25 mg/kg/injection, schedule: Q04DX002 (ip), vehicle: saline with Tween-80) 100 % of control; (dose: 2.5 mg/kg/injection, schedule: Q04DX002 (ip), vehicle: saline with Tween-80) 99 % of control; (dose: 5.0 mg/kg/injection, schedule: Q04DX002 (ip), vehicle: saline with Tween-80) 98 % of control.
As for `Nc1ncnc2nc(Cl)[nH]c12`, the T/C by setting is: (dose: 50.0 mg/kg/injection, schedule: Q01DX005 (ip), vehicle: Klucel (hydroxypropylcellulose) (HPC)) 91 % of control; (dose: 100.0 mg/kg/injection, schedule: Q01DX005 (ip), vehicle: Klucel (hydroxypropylcellulose) (HPC)) 93 % of control; (dose: 200.0 mg/kg/injection, schedule: Q01DX005 (ip), vehicle: Klucel (hydroxypropylcellulose) (HPC)) 93 % of control.
Regarding `Cc1ccc(S(=O)(=O)NC(=S)Nc2ccccc2)cc1`, the T/C is, setting by setting: (dose: 100.0 mg/kg/injection, schedule: Q04DX003 (ip), vehicle: saline with Tween-80) 99 % of control; (dose: 200.0 mg/kg/injection, schedule: Q04DX003 (ip), vehicle: saline with Tween-80) 108 % of control; (dose: 400.0 mg/kg/injection, schedule: Q04DX003 (ip), vehicle: saline with Tween-80) 100 % of control.
As for `Nc1ccc(C(=O)Nc2ccc(C(=O)Nc3ccc4cc(S(=O)(=O)O)cc(S(=O)(=O)O)c4c3)cc2)cc1`, the T/C is 103 % of control (dose: 50.0 mg/kg/injection, schedule: Q01DX005 (ip), vehicle: saline); 103 % of control (dose: 100.0 mg/kg/injection, schedule: Q01DX005 (ip), vehicle: saline); 103 % of control (dose: 200.0 mg/kg/injection, schedule: Q01DX005 (ip), vehicle: saline).
For the molecule `CC1=NOC(=O)/C1=C/c1ccc(Cl)cc1`, the T/C under setting [4] is 99 % of control, the T/C under setting [5] is 105 % of control and the T/C under setting [6] was 104 % of control.
As for `COC1=C(C)C(=O)c2c(C(C)C)cc(O)c(C=O)c2C1=O`, the T/C was 100 % of control (dose: 3.0 mg/kg/injection, schedule: Q01DX009 (ip), vehicle: Klucel (hydroxypropylcellulose) (HPC)); 100 % of control (dose: 6.0 mg/kg/injection, schedule: Q01DX009 (ip), vehicle: Klucel (hydroxypropylcellulose) (HPC)); 109 % of control (dose: 12.0 mg/kg/injection, schedule: Q01DX009 (ip), vehicle: Klucel (hydroxypropylcellulose) (HPC)); 109 % of control (dose: 24.0 mg/kg/injection, schedule: Q01DX009 (ip), vehicle: Klucel (hydroxypropylcellulose) (HPC)).
Consider `CC(=O)Nc1ccc(Nc2nc(Cl)nc(Nc3ccc(NC(C)=O)cc3)n2)cc1`, for which the T/C under setting [1] is 100 % of control; the T/C under setting [2] is 89 % of control and 97 % of control; the T/C (dose: 120.0 mg/kg/injection, schedule: Q01DX005 (ip), vehicle: Klucel (hydroxypropylcellulose) (HPC)) was 93 % of control; the T/C under setting [3] is 89 % of control.
Take `O=S1CCCS(=O)C1c1ccccc1` (stereo unspecified): the T/C was 100 % of control under setting [4], 91 % of control under setting [5] and 97 % of control under setting [6].
On to `CCCCNC1c2ccccc2CCC1O` (stereo unspecified), for which the T/C under setting [7] is 97 % of control; the T/C (dose: 100.0 mg/kg/injection, schedule: Q04DX002 (ip), vehicle: Klucel (hydroxypropylcellulose) (HPC)) was 118 % of control; the T/C under setting [8] was 99 % of control.
Take `CSc1cccc(NC(=O)Oc2ccc(Br)cc2)c1`: the T/C under setting [9] was 91 % of control, the T/C under setting [10] was 93 % of control and the T/C under setting [11] was 101 % of control.
As for `COc1ccc(CCNC(C)Cc2ccc(OC)c(OC)c2)cc1OC` (stereo unspecified), the T/C runs as follows: (dose: 3.13 mg/kg/injection, schedule: Q01DX009 (ip), vehicle: water) 94 % of control; (dose: 6.25 mg/kg/injection, schedule: Q01DX009 (ip), vehicle: water) 92 % of control; (dose: 12.5 mg/kg/injection, schedule: Q01DX009 (ip), vehicle: water) 96 % of control; (dose: 25.0 mg/kg/injection, schedule: Q01DX009 (ip), vehicle: water) 100 % of control; (dose: 50.0 mg/kg/injection, schedule: Q01DX009 (ip), vehicle: water) 99 % of control.
On to `CN(C)CCOC(=O)C(C)(C)Sc1ccc(Cl)cc1`, for which the T/C reads like this: under setting [4], 107 % of control; under setting [5], 92 % of control; under setting [6], 98 % of control.
For `[O-]c1c(Cl)c(Cl)c(O[P+](c2ccccc2)(c2ccccc2)c2ccccc2)c(Cl)c1Cl`, the T/C (dose: 6.25 mg/kg/injection, schedule: Q01DX009 (ip), vehicle: saline) was 108 % of control and 96 % of control; the T/C (dose: 12.5 mg/kg/injection, schedule: Q01DX009 (ip), vehicle: saline) was 113 % of control and 97 % of control; the T/C (dose: 25.0 mg/kg/injection, schedule: Q01DX009 (ip), vehicle: saline) is 108 % of control and 114 % of control and 92 % of control; the T/C (dose: 50.0 mg/kg/injection, schedule: Q01DX009 (ip), vehicle: saline) was 113 % of control.
On to `O=C(/C=C/c1ccc(OCc2ccccc2)cc1)c1ccccc1Cl`, for which the T/C was 110 % of control and 95 % of control under setting [9]; 110 % of control and 91 % of control under setting [10]; 100 % of control under setting [11]; 100 % of control (dose: 400.0 mg/kg/injection, schedule: Q01DX009 (ip), vehicle: saline with Tween-80).
Take `Nc1[nH]c(=S)[nH]c(=O)c1N=Cc1ccc(Cl)c(Cl)c1`: the T/C is, setting by setting: (dose: 50.0 mg/kg/injection, schedule: Q01DX001 (ip), vehicle: Klucel (hydroxypropylcellulose) (HPC)) 100 % of control; under setting [7], 100 % of control and 102 % of control and 114 % of control; under setting [8], 103 % of control (2×) and 116 % of control; (dose: 400.0 mg/kg/injection, schedule: Q01DX001 (ip), vehicle: Klucel (hydroxypropylcellulose) (HPC)) 107 % of control and 110 % of control.

The values above are taken from PubChem BioAssay AID330 (DTP/NCI, 2004).
